{"source": "patent US11248019B2", "about": "“Trityl-mono-GalNAc compounds and their use” (Hoffmann-La Roche Inc., priority 2016, dated 2022)", "key": {"[1]": {"test_system": "ApoB mRNA", "assay": "ApoB mRNA knockdown in liver and kidney by qPCR, single sc dose, sacrifice day 10 (Example 4)", "assay_type": "in vivo, C57BL6/J mice", "conditions": "0.25 mg/kg single sc dose", "method": "(§1) Female C57BL6/J mice (5/group appr. 20 g at arrival) were injected subcutaneous (sc) with a single dose saline or 0.25 mg/kg unconjugated LNA-antisense oligonucleotide (compound F) or with 0.25 mg/kg or 0.1 mg/kg of GalNAc conjugated LNA antisense oligonucleotide (Compound C or E of the invention or reference compound G). Blood samples of 50 μl were collected pre-dosing at day minus 6, and post dosing at day 3 and 7. The animals were sacrificed at day 10 and total serum was collected as well as liver and kidney.\n(§2) ApoB mRNA knockdown was analyzed by qPCR. In brief, RNA was isolated from homogenized liver and kidney using MagnaPure RNA Isolation and purification system (catalog #03604721001 and #05467535001; Roche) according to the manufacturer's instructions. RT-QPCR was done using Taqman Fast Universal PCR Master Mix 2×(Applied Biosystems Cat #4364103) and Taqman gene expression assay (mApoB, Mn01545150_m1 and mGAPDH #4352339E) following the manufacturers protocol."}, "[2]": {"assay": "Oligonucleotide content in liver and kidney by ELISA (Example 4)", "assay_type": "in vivo, C57BL6/J mice", "conditions": "0.25 mg/kg single sc dose, day 10", "method": "as §1\nThe oligonucleotide content in the liver and kidney was measured using ELISA (see for example Straarup et al 2010 Nucleic Acid Res Vol 38 pp 7100-7111), results are shown in Table 6."}, "[3]": {"test_system": "ApoB mRNA", "assay": "ApoB mRNA knockdown in liver and kidney by qPCR, single iv dose, sacrifice day 3 (Example 6)", "assay_type": "in vivo, C57BL6/J mice", "method": "as §2\n(§3) Female C57BL6/J mice (5/group appr. 20 g at arrival) were injected intravenous (iv) with a single dose saline, 0.22 mg/kg, 0.45 mg/kg or 0.89 mg/kg, of GalNAc conjugated LNA antisense oligonucleotide (Compound H, I or J of the invention) or the naked reference compound F. Blood samples of 50 μl were collected pre-dosing at day minus 6. The animals were sacrificed at day 3. Total serum was collected as well as liver and kidney."}, "[4]": {"assay": "Oligonucleotide content in liver and kidney by ELISA (Example 6)", "assay_type": "in vivo, C57BL6/J mice", "conditions": "day 3", "method": "as §3\nThe oligonucleotide content in the liver and kidney was measured using ELISA (see for example Straarup et al 2010 Nucleic Acid Res Vol 38 pp 7100-7111), results are shown in Table 11A and 11B."}, "[5]": {"test_system": "total cholesterol in serum", "assay": "Total cholesterol in serum (Example 6)", "assay_type": "in vivo, C57BL6/J mice", "conditions": "day 3", "method": "as §3\nTotal cholesterol in serum was measured using ABX Pentra Cholesterol CP (Triolab, Brondby, Denmark) according to the manufacturer's instructions."}, "[6]": {"assay": "ALT in serum (Example 6)", "assay_type": "in vivo, C57BL6/J mice", "conditions": "day 3", "method": "as §3\nALT (Alanine aminotransferase) was measured using ABX Pentra ALT CP reagent (A11A01627 Triolab, Brondby, Denmark. The results are shown in Table 13."}, "[7]": {"test_system": "ApoB mRNA", "assay": "ApoB mRNA knock down in primary mouse hepatocytes, qPCR (Example 9)", "assay_type": "cell-based, C57BL/6J female mice", "conditions": "n = 2", "method": "Primary mouse hepatocytes were isolated from C57BL/6J female mice. The mice were anesthesized and the liver was perfused at a flow rate of 7 ml per min through the vena cava using Hank's balanced salt solution containing 15 mM Hepes and 0.38 mM EGTA for 5 min followed by collagenase solution (Hank's balanced salt solution containing 0.17 mg/ml Collagenase type 2 (Worthington 4176), 0.03% BSA, 3.2 mM CaCl2 and 1.6 g/I NaHCO3) for 12 min. Following perfusion, the liver was removed and the liver capsule was opened, the liver suspension was filtered through 70 μm cell strainer using William E medium. The cell suspension was centrifuged for 3 min at 50×g. Viable hepatocytes were further enriched by gradient centrifugation with 45% Percoll (Sigma cat. No. P4937) for 10 min at 50×g. The pellet was washed and resuspended in 25 ml William E medium (Sigma cat. no. W1878 complemented with 1×Pen/Strep, 2 mM L-glutamine and 10% FBS (ATCC #30-2030)), and seeded at 25.000 cells per well in collagen coated 96 well plates. After 3 hours the medium was exchanged and the oligonucleotides were added using 3 fold dilutions from […]. Two different incubation regimens were used, one where the cells were incubated 4 hours with oligonucleotide following a medium exchange and continued incubation to a total of 72 hours. […]"}, "[8]": {"test_system": "primary mouse hepatocytes", "assay": "Oligonucleotide content in primary mouse hepatocyte culture by ELISA (Example 9)", "assay_type": "in vitro ADME, C57BL/6J female mice", "method": "Primary mouse hepatocytes were isolated from C57BL/6J female mice. The mice were anesthesized and the liver was perfused at a flow rate of 7 ml per min through the vena cava using Hank's balanced salt solution containing 15 mM Hepes and 0.38 mM EGTA for 5 min followed by collagenase solution (Hank's balanced salt solution containing 0.17 mg/ml Collagenase type 2 (Worthington 4176), 0.03% BSA, 3.2 mM CaCl2 and 1.6 g/I NaHCO3) for 12 min. Following perfusion, the liver was removed and the liver capsule was opened, the liver suspension was filtered through 70 μm cell strainer using William E medium. The cell suspension was centrifuged for 3 min at 50×g. Viable hepatocytes were further enriched by gradient centrifugation with 45% Percoll (Sigma cat. No. P4937) for 10 min at 50×g. The pellet was washed and resuspended in 25 ml William E medium (Sigma cat. no. W1878 complemented with 1×Pen/Strep, 2 mM L-glutamine and 10% FBS (ATCC #30-2030)), and seeded at 25.000 cells per well in collagen coated 96 well plates. […] Two different incubation regimens were used, one where the cells were incubated 4 hours with oligonucleotide following a medium exchange and continued incubation to a total of 72 hours. In the second regimen the cells were incubated for 72 hours with the oligonucleotides.\nOligonucleotide content analysis was performed using ELISA (see for example Straarup et al 2010 Nucleic Acid Res Vol 38 pp 7100-7111), results are shown in table 20 and 21 below."}}, "data": [{"substance": "5′-GS^mCSaStStSgSgStSaStSTS^mCSA-3′ [Compound F, reference compound]", "values": [{"measurement": "ApoB mRNA expression as % of saline, mRNA kidney", "setting": "[1]; day 10, kidney", "value": "24.7 % of saline"}, {"measurement": "ApoB mRNA expression as % of saline, mRNA liver", "setting": "[1]; day 10, liver", "value": "74.5 % of saline"}, {"measurement": "Oligonucleotide content, Kidney", "setting": "[2]", "value": 1.370, "unit": "μg/g tissue"}, {"measurement": "Oligonucleotide content, Liver", "setting": "[2]", "value": 0.028, "unit": "μg/g tissue"}, {"measurement": "ApoB mRNA expression as % of saline in kidney", "setting": "[3]; 0.22 mg/kg single iv dose", "value": "68.0 % of saline"}, {"measurement": "ApoB mRNA/mGAPDH expression as % of saline in liver", "setting": "[3]; 0.22 mg/kg single iv dose", "value": "87.5 % of saline"}, {"measurement": "ApoB mRNA expression as % of saline in kidney", "setting": "[3]; 0.45 mg/kg single iv dose", "value": "51.1 % of saline"}, {"measurement": "ApoB mRNA/mGAPDH expression as % of saline in liver", "setting": "[3]; 0.45 mg/kg single iv dose", "value": "90.2 % of saline"}, {"measurement": "ApoB mRNA expression as % of saline in kidney", "setting": "[3]; 0.89 mg/kg single iv dose", "value": "29.0 % of saline"}, {"measurement": "ApoB mRNA/mGAPDH expression as % of saline in liver", "setting": "[3]; 0.89 mg/kg single iv dose", "value": "53.8 % of saline"}, {"measurement": "Oligonucleotide content in kidney tissue", "setting": "[4]; 0.22 mg/kg single iv dose", "value": 0.337, "unit": "µg/g"}, {"measurement": "Oligonucleotide content in liver tissue", "setting": "[4]; 0.22 mg/kg single iv dose", "value": 0.059, "unit": "µg/g"}, {"measurement": "Oligonucleotide content in kidney tissue", "setting": "[4]; 0.45 mg/kg single iv dose", "value": 0.506, "unit": "µg/g"}, {"measurement": "Oligonucleotide content in liver tissue", "setting": "[4]; 0.45 mg/kg single iv dose", "value": 0.173, "unit": "µg/g"}, {"measurement": "Oligonucleotide content in kidney tissue", "setting": "[4]; 0.89 mg/kg single iv dose", "value": 1.050, "unit": "µg/g"}, {"measurement": "Oligonucleotide content in liver tissue", "setting": "[4]; 0.89 mg/kg single iv dose", "value": 0.470, "unit": "µg/g"}, {"measurement": "serum cholesterol percent of saline", "setting": "[5]; 0.22 mg/kg single iv dose", "value": "104.3% of saline"}, {"measurement": "serum cholesterol percent of saline", "setting": "[5]; 0.45 mg/kg single iv dose", "value": "86.8% of saline"}, {"measurement": "serum cholesterol percent of saline", "setting": "[5]; 0.89 mg/kg single iv dose", "value": "66.9% of saline"}, {"measurement": "ALT levels (U/L) in serum at day 3 as % of saline", "setting": "[6]; 0.22 mg/kg single iv dose", "value": "91 % of saline"}, {"measurement": "ALT levels (U/L) in serum at day 3 as % of saline", "setting": "[6]; 0.45 mg/kg single iv dose", "value": "151 % of saline"}, {"measurement": "ALT levels (U/L) in serum at day 3 as % of saline", "setting": "[6]; 0.89 mg/kg single iv dose", "value": "217 % of saline"}, {"measurement": "IC50", "setting": "[7]; 4 h pulse/72 h total incubation", "value": 2620, "unit": "nM"}, {"measurement": "IC50", "setting": "[7]; 72 h oligonucleotide treatment", "value": 331, "unit": "nM"}, {"measurement": "oligonucleotide content in the cell culture", "setting": "[8]; 4 h pulse, 72 hours total incubation, 1 μM", "value": 0.1, "unit": "pmol/μg protein"}, {"measurement": "oligonucleotide content in the cell culture", "setting": "[8]; 4 h pulse, 72 hours total incubation, 3 μM", "value": 0.4, "unit": "pmol/μg protein"}, {"measurement": "oligonucleotide content in the cell culture", "setting": "[8]; 4 h pulse, 72 hours total incubation, 9 μM", "value": 1.0, "unit": "pmol/μg protein"}, {"measurement": "oligonucleotide content in the cell culture", "setting": "[8]; 4 h pulse, 72 hours total incubation, 27 μM", "value": "1.4+/−0.2 pmol/μg protein"}, {"measurement": "oligonucleotide content in the cell culture", "setting": "[8]; 72 h oligonucleotide treatment, 0.11 μM", "value": 0.5, "unit": "pmol/μg protein"}, {"measurement": "oligonucleotide content in the cell culture", "setting": "[8]; 72 h oligonucleotide treatment, 0.33 μM", "value": 1.5, "unit": "pmol/μg protein"}, {"measurement": "oligonucleotide content in the cell culture", "setting": "[8]; 72 h oligonucleotide treatment, 1 μM", "value": 7.9, "unit": "pmol/μg protein"}, {"measurement": "oligonucleotide content in the cell culture", "setting": "[8]; 72 h oligonucleotide treatment, 3 μM", "value": 14.5, "unit": "pmol/μg protein"}, {"measurement": "oligonucleotide content in the cell culture", "setting": "[8]; 72 h oligonucleotide treatment, 9 μM", "value": 34.1, "unit": "pmol/μg protein"}, {"measurement": "oligonucleotide content in the cell culture", "setting": "[8]; 72 h oligonucleotide treatment, 27 μM", "value": "34.2+/−0.7 pmol/μg protein"}]}]}
